From patent US5376634A, “Polypeptide compound and a process for preparation thereof” (Fujisawa Pharmaceutical Co., Ltd., priority 1990, dated 1994)
Starred links: 1 amine or outer side, 2 acyl side, 3 side chain; linkers in the order of their positions; H or OH if unused. Positions of bridges follow the written chain, without caps; N, C: chain ends. Non-standard residues stand in square brackets, D forms with d. Residues, ends and D or L forms follow the SMILES beside them. *: point of attachment. hTyr(3S-OH,4S-OH,3'-OSO3H) = N[C@H](C(=O)O)[C@H](O)[C@@H](O)c1ccc(O)c(OS(=O)(=O)O)c1; Orn(4R-OH,5S-OH) = O=C([C@H](C[C@@H](O)[C@H](O)N[*:3])N[*:1])[*:2]; Pro(3S-OH,4S-Me) = C[C@H]1CN[C@H](C(=O)O)[C@H]1O; Benzoyl(4-octyloxy) = CCCCCCCCOc1ccc(C(=O)*)cc1; Gln(3R-OH) = NC(=O)C[C@@H](O)[C@H](N)C(=O)O; Hyp = O=C(O)[C@@H]1C[C@@H](O)CN1

Assays:
[1] = Solubility (physico-chemical properties); type: physicochemical
[2] = system: ICR mice; experiment: Acute toxicity, single intravenous injection; type: in vivo; conditions: ICR mice (female, 4 weeks old), dose of 500 mg/kg
Protocol: The acute toxicity of the FR131535 substance was determined to ICR mice (female, 4 weeks old) by a single intravenous injection.

For `CCCCCCCCOc1ccc(C(=O)N[C@H]2C[C@@H](O)[C@H](O)NC(=O)[C@@H]3[C@@H](O)[C@@H](C)CN3C(=O)[C@H]([C@H](O)CC(N)=O)NC(=O)[C@H]([C@H](O)[C@@H](O)c3ccc(O)c(OS(=O)(=O)O)c3)NC(=O)[C@@H]3C[C@@H](O)CN3C(=O)[C@H]([C@@H](C)O)NC2=O)cc1` [FR131535] ({Benzoyl(4-octyloxy)}-[Orn(4R-OH,5S-OH)]T[Hyp][hTyr(3S-OH,4S-OH,3'-OSO3H)][Gln(3R-OH)][Pro(3S-OH,4S-Me)]; lactam 1-C), the Solubility ([1]; acetone) was “slightly soluble”, the Solubility ([1]; methanol) was “soluble” and the Solubility ([1]; n-hexane) was “insoluble”. For the same compound, the Solubility ([1]; water) was “soluble” and the acute toxicity [2] was “No toxic symptom was observed”.
